Data from ChEMBL document CHEMBL2177014 (J Med Chem, 2012).
Structures can show the parent of a compound that is named as a salt.

What was measured:
SH-SY5Y = experiment: Neuroprotective activity in human SH-SY5Y cells assessed as protection against NMDA-induced cell death after 6 hrs by MTS assay; format: functional, cell-based
[1] = target: Glutamate receptor ionotropic, NMDA 2B (Rattus norvegicus, UniProt Q00960); experiment: Displacement of [3H]Ifenprodil from NMDAR-2B in Sprague-Dawley rat frontal cortex homogenates after 2 hrs by liquid scintillation counting; format: tissue-based
[2] = Displacement of [3H]MK-801 from NMDAR in Sprague-Dawley rat cerebral cortex homogenates after 2 hrs by liquid scintillation counting; format: tissue-based
[3] = Lipophilicity, log P of the compound; format: physicochemical; conditions: octanol/water
Acetylcholinesterase = target: T1, Acetylcholinesterase (Rattus norvegicus, UniProt P37136); experiment: biochemical
T1 sequence (P37136 whole entry): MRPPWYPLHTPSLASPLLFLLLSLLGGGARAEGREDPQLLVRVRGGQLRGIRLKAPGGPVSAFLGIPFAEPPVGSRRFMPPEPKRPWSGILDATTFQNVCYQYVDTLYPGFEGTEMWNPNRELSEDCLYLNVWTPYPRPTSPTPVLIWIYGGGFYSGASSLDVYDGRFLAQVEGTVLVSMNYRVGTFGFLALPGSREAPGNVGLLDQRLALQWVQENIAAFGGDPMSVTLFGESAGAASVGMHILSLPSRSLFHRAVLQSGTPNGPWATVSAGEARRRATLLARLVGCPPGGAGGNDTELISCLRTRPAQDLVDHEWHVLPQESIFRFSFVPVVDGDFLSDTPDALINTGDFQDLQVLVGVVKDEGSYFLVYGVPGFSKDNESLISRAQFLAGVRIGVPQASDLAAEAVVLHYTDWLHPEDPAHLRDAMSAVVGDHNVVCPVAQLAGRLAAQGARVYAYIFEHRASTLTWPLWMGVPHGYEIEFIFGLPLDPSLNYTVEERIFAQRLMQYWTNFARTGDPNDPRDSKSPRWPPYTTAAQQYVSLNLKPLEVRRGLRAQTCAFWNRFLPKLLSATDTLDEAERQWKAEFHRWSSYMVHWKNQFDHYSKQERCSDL
Description: Inhibition of AChE in Wistar rat brain homogenates using acetylthiocholine iodide and DTNB as substrate after 10 mins by Ellman method

Rattus norvegicus = species: Rattus norvegicus; experiment: Displacement of [3H]MK-801 from NMDAR in Sprague-Dawley rat cerebral cortex homogenates at 10 uM after 2 hrs by liquid scintillation counting; format: tissue-based
[4] = Binding affinity to NMDAR in Sprague-Dawley rat cerebral cortex homogenates; format: tissue-based
[5] = target: T2, Acetylcholinesterase (Rattus norvegicus) (UniProt P37136); experiment: Inhibition of AChE in Wistar rat brain homogenates using acetylthiocholine iodide and DTNB as substrate at 10 uM after 10 mins by Ellman method; format: tissue-based
T2 sequence (whole entry): T1 sequence (P37136 whole entry)

Chain of Glutamate receptor ionotropic, NMDA 2B (Q00960 whole entry): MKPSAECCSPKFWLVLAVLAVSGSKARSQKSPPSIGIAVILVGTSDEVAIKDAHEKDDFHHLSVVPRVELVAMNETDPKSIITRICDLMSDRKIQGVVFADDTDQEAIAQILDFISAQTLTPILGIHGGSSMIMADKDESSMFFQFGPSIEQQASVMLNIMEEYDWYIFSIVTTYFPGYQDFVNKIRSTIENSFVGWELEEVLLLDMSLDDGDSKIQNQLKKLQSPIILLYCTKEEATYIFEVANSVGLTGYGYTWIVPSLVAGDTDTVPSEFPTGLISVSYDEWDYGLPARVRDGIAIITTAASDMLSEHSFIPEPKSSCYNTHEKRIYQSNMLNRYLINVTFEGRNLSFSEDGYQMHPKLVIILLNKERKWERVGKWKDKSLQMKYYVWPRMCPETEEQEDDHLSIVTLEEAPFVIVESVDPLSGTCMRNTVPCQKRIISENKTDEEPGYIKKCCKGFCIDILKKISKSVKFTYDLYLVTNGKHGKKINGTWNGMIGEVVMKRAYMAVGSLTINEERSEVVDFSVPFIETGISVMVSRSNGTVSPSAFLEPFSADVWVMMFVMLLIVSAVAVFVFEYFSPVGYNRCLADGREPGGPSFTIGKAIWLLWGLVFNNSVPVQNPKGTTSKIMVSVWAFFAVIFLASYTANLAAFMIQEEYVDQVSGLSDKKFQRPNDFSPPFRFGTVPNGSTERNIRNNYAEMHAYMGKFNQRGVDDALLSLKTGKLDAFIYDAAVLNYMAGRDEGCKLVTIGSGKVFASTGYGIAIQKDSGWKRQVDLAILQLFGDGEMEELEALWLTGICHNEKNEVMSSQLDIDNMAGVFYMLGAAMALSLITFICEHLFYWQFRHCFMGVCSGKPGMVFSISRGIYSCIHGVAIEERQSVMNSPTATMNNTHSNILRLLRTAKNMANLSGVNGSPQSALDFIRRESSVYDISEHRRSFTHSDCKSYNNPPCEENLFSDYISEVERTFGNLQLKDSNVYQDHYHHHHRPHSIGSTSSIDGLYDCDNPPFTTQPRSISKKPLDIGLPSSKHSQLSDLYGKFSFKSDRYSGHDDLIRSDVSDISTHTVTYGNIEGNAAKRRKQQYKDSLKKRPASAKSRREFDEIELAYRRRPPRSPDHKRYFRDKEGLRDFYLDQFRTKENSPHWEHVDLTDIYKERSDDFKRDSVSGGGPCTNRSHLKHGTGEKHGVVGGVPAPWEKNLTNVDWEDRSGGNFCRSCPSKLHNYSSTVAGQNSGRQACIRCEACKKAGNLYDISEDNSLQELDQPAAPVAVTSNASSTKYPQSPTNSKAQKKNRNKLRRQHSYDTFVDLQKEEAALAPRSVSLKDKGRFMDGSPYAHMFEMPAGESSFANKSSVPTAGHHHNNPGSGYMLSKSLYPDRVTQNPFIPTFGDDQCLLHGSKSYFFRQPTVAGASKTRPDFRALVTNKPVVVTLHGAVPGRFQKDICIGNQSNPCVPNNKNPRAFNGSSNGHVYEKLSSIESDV

| Compound | IC50 (SH-SY5Y) [nM] | Ki [1] [nM] | Ki [2] [nM] | logP [3] | IC50 (Acetylcholinesterase) [nM] | inhibition (Rattus norvegicus) [%] | Kd [4] [nM] | inhibition [5] [%] |
| --- | --- | --- | --- | --- | --- | --- | --- | --- |
| COc1ccc2c3c1O[C@H]1C[C@@H](O)C=C[C@@]31CCN(C)C2 [GALANTAMINE] | 747 | > 100000 | > 10000 | – | – | – | – | – |
| COc1ccc2c3c1O[C@H]1C[C@@H](O)C=C[C@@]31CCN(CCCCCCNC13CC4CC(C)(CC(C)(C4)C1)C3)C2 [MEMAGAL] | 0.28 | 4600 | 4600 | 4.94 | 1.16 | – | – | – |
| COc1ccc2c3c1O[C@H]1C[C@@H](O)C=C[C@@]31CCN(CCSCCNC13CC4CC(C)(CC(C)(C4)C1)C3)C2 | – | > 100000 | > 10000 | – | 131 | – | – | – |
| COc1ccc2c3c1O[C@H]1C[C@@H](O)C=C[C@@]31CCN(CCCCCC(=O)NC13CC4CC(C)(CC(C)(C4)C1)C3)C2 | 0.37 | 9760 | – | – | 11.3 | 33.9 | – | – |
| COc1ccc2c3c1O[C@H]1C[C@@H](O)C=C[C@@]31CCN(CCCCCCCCN(C)C13CC4CC(C)(CC(C)(C4)C1)C3)C2 | – | > 100000 | > 10000 | – | 0.52 | – | – | – |
| COc1ccc2c3c1O[C@H]1C[C@@H](O)C=C[C@@]31CCN(CCCCCCCCNC13CC4CC(C)(CC(C)(C4)C1)C3)C2 | – | 2900 | 4990 | 5.9 | 5.36 | – | – | – |
| COc1ccc2c3c1O[C@H]1C[C@@H](O)C=C[C@@]31CCN(CCCCCCCNC13CC4CC(C)(CC(C)(C4)C1)C3)C2 | 0.21 | 11000 | 10000 | 5.42 | 1.79 | – | – | – |
| CC(C(O)c1ccc(O)cc1)N1CCC(Cc2ccccc2)CC1 (configuration not stated) [IFENPRODIL] | – | – | 3080 | – | – | – | – | – |
| C[C@]12N[C@H](Cc3ccccc31)c1ccccc12 [DIZOCILPINE MALEATE] | 7.91 | – | – | – | – | – | 4 | – |
| COc1ccc2c3c1O[C@H]1C[C@@H](O)C=C[C@@]31CCN(CCOCCNC13CC4CC(C)(CC(C)(C4)C1)C3)C2 | – | > 100000 | > 10000 | – | 3920 | – | – | – |
| COc1ccc2c3c1O[C@H]1C[C@@H](O)C=C[C@@]31CCN(CCCCCNC13CC4CC(C)(CC(C)(C4)C1)C3)C2 | – | 40900 | > 10000 | 4.46 | 4.31 | – | – | – |
| COc1ccc2c3c1O[C@H]1C[C@@H](O)C=C[C@@]31CCN(CCCC(=O)NC13CC4CC(C)(CC(C)(C4)C1)C3)C2 | – | > 100000 | > 10000 | – | 55.7 | – | – | – |
| COc1ccc2c3c1O[C@H]1C[C@@H](O)C=C[C@@]31CCN(CCCCCCCCCNC13CC4CC(C)(CC(C)(C4)C1)C3)C2 | – | > 100000 | 4630 | 6.38 | 2.32 | – | – | – |
| COc1ccc2c3c1O[C@H]1C[C@@H](O)C=C[C@@]31CCN(CCCCNC13CC4CC(C)(CC(C)(C4)C1)C3)C2 | – | > 100000 | 2320 | 3.98 | 696 | – | – | – |
| CC12CC3CC(C)(C1)CC(N)(C3)C2 [MEMANTINE] | 718 | – | 1160 | – | – | – | – | 8.5 |
| COc1ccc2c3c1O[C@H]1C[C@@H](O)C=C[C@@]31CCN(CCCCC(=O)NC13CC4CC(C)(CC(C)(C4)C1)C3)C2 | – | > 100000 | > 10000 | – | 369 | – | – | – |
| COc1ccc2c3c1O[C@H]1C[C@@H](O)C=C[C@@]31CCN(CCCCCCCN(C)C13CC4CC(C)(CC(C)(C4)C1)C3)C2 | – | > 100000 | > 10000 | – | 1.33 | – | – | – |
| COc1ccc2c3c1O[C@H]1C[C@@H](O)C=C[C@@]31CCN(CCCNCCCNC13CC4CC(C)(CC(C)(C4)C1)C3)C2 | – | 3320 | 5410 | – | 168 | – | – | – |
| COc1ccc2c3c1O[C@H]1C[C@@H](O)C=C[C@@]31CCN(CCOCCOCCNC13CC4CC(C)(CC(C)(C4)C1)C3)C2 | > 10000 | > 100000 | > 10000 | – | 80.9 | – | – | – |
| COc1ccc2c3c1O[C@H]1C[C@@H](O)C=C[C@@]31CCN(CCCCCCN(C)C13CC4CC(C)(CC(C)(C4)C1)C3)C2 | – | 5250 | > 10000 | – | 1.03 | – | – | – |
